Entries after “also recorded” stand apart in the source; their conditions may differ.
Assays:
female Fisher 344 rats = assay: Cancellous bone histomorphometry of rat proximal tibial metaphysis after oral 2ME; format: in vivo; conditions: 100 mg/kg/day oral gavage 13 days, mean ± SE
Method: All studies were approved by the Institutional Animal Care and Use Committee of the Mayo Clinic, Rochester, Minn. Rats were kept in plastic cages (3 per cage) under standard conditions of a 12 hr dark and 12 hr light cycle with food (Purina Laboratory rodent diet 5001, Ralston-Purina, St. Louis, Mo.) and water ad libitum. Rooms were maintained at a temperature of 24° C.
Fluorochromes were given […] tail vein.
Bone histomorphometry Histomorphometric measurements were performed with the OsteoMeasure Analysis System (OsteoMetrics, Atlanta, Ga.), which consisted of a Pentium 1133 computer coupled to a photomicroscope and image analysis system. […] The region of interest was traced, and the line lengths and area bounded by lines were calculated automatically.
Cancellous bone measurements on stained sections The proximal tibial metaphysis was dehydrated in a series of increasing concentrations of ethanol, embedded without demineralization in a mixture of methyimethacrylate-2-hydroxyethyl and methacrylate (12.5:1) to retain the fluorochrome labels, and sectioned at a thickness of 5 μm (Reichert-Jung Model 2065 Microtome, Heidelberg Germany). Sections were stained with toluidine blue. A standard sampling site was established in the secondary spongiosa of the metaphysis, 1 mm distal to the calcein label that was deposited at the metaphyseal growth plate, its center perpendicular to the long axis of each bone and extending 2.0 mm distal to the starting point. This method adjusts for longitudinal growth such that only the portion of the secondary spongiosa present throughout the experiment was sampled. A total metaphyseal area of 2.88 mm^2 was sampled for each section.
Bone volume measurements Cancellous bone area and cancellous perimeter were determined as described by Turner, R. T. et al., 1998, supra. The following indices of trabecular architecture were calculated: 1) trabecular thickness; 2) trabecular number; and 3) trabecular separation.
Bone formation measurements and calculations Bone formation rate (%/day, tissue area referent) was calculated as the double-labeled perimeter (μn) multiplied by the mineral apposition rate (μm/day) and divided by the tissue area (mm^2); bone formation rate (perimeter referent) was calculated as the double-labeled perimeter (μm) multiplied by the mineral apposition rate (μm/day) and divided by the total bone perimeter (mm); mineral apposition rate was calculated as the mean distance between the declomycin label and the calcein label by the time interval (11 days); and double-labeled perimeter (tissue are referent) was measured as the length with declomycin and calcein labels (mm/mm^2 of cancellous tissue area).
Statistical Analvses All values are expressed as mean±standard error (SE). Significant differences between groups were determined by Fisher's Protected Least Significant Difference post hoc test for multiple group comparisons following detection of significance by 1-way ANOVA. Significance was considered at p values ≦0.05.

[1] = Serum cholesterol in 2ME treated rats; format: in vivo, rat; conditions: 100 mg/kg/day oral gavage 13 days
MG63 cells [2] = assay: Apoptotic gene mRNA levels by RNase protection assay; format: cell-based, human; conditions: 10 μM
Method: The changes in expression of the genes that are known to antagonize or promote apoptosis were analyzed by this method. MG63 cells in triplicate cultures were treated with 10 μM 2ME. Cells were harvested at the end of 12, 24, 48 and 72 h of treatment and used for RNA isolation. Total RNA isolated from cells was analyzed by RNase protection assay using apoptosis template set for multiprobes (Pharmingen; San Diego, Calif.). Quantitation of protected RNA fragments was performed by Phosphor Imager analyses and normalized to L32 or GAP levels. The mRNA for the proapoptotic gene bak and bax were increased by 2ME treatment in MG63 cells (FIG. 7). The increase was significant within 12 h of treatment and reached a maximum (2 fold for bak; 2.5 fold for bax) at 48 h, at which time cell death by apoptosis was detected by in situ TUNEL assay.

MG63 cells [3] = assay: Cytokine and growth factor mRNA levels by RNase protection assay; format: cell-based, human; conditions: 10 μM
Method: Changes in steady state mRNA levels for cytokines implicated in the regulation of bone formation and resorption were measured using RNase Protection assays. For RNA isolation and RNase protection assays, MG63 cells were plated at 10^6 cells per T75 culture flask a day prior to metabolite treatment. The next day, the medium was removed and replaced with fresh medium containing 10 μM concentrations of 2ME and incubated for 12, 24, 48, and 72 hours. Cells were harvested and cell pellets were used for RNA isolation. Total cellular RNA was extracted and isolated using a modified organic solvent method and the RNA yields were determined spectrohotometrically at 260 nm. Total cellular RNA was analyzed by RNase protection assays using antisense RNA probes for transforming growth factor-beta (TGF-β), tumor necrosis factor (TNF) α and β, interleukin (IL) 1α, 1β, 1Ra, 6, 10, 12 (p35 and p40), interferon (IFN) β and γ, and lymphotoxin (LT) β. Quantitation of protected RNA fragments was performed by PhosphorImager analyses and normalized to ribosomal structural protein L32 or glyceraldehyde 3-phosphate dehydrogenase levels. Results are presented in FIG. 8 and Table 4, and are representative of 3 independent treatments.

COc1cc2c(cc1O)CC[C@@H]1[C@@H]2CC[C@]2(C)[C@@H](O)CC[C@@H]12 [2ME, 2-methoxyestradiol]
BFR/BS (female Fisher 344 rats): 0.35 ± 0.03 %/day | BV/TV (female Fisher 344 rats): 17.7 ± 1.9% | Mineral Apposition Rate (female Fisher 344 rats): 172 ± 0.05 μm/day | Tb.Sp (female Fisher 344 rats): 297 ± 46 μm | Tb.Th (female Fisher 344 rats): 57 ± 2 μm | effect on serum cholesterol (in words) [1]: decreased; also recorded: highly significant decreases | maximum increase of bak mRNA (MG63 cells [2]; 48 h): 2 fold | maximum increase of bax mRNA (MG63 cells [2]; 48 h): 2.5 fold | mRNA levels for bak and bax (in words) (MG63 cells [2]; 72 h): returned to basal level | increase of TGF-β1 mRNA level (MG63 cells [3]): 177% | increase of TGF-β2 mRNA level (MG63 cells [3]): 289% | increase of TGF-β3 mRNA level (MG63 cells [3]): 178% | IFN-β mRNA (MG63 cells [3]; 12-72 hours): Increased | IFN-γ mRNA (MG63 cells [3]; 12-72 hours): Not detected | IL-1 Ra mRNA (MG63 cells [3]; 12-72 hours): Not detected | IL-1α mRNA (MG63 cells [3]; 12-72 hours): Not detected | IL-1β mRNA (MG63 cells [3]; 12-72 hours): Not detected | IL-6 mRNA (MG63 cells [3]; 12-72 hours): Not detected | IL-10 mRNA (MG63 cells [3]; 12-72 hours): Not detected | IL-12 p35 mRNA (MG63 cells [3]; 12-72 hours): Not detected | IL-12 p40 mRNA (MG63 cells [3]; 12-72 hours): Not detected | LT-β mRNA (MG63 cells [3]; 12-72 hours): Not detected | TGF-β1 mRNA (MG63 cells [3]; 12-72 hours): Increased | TGF-β2 mRNA (MG63 cells [3]; 12-72 hours): Increased | TGF-β3 mRNA (MG63 cells [3]; 12-72 hours): Increased | TNF-α mRNA (MG63 cells [3]; 12-72 hours): Not detected | TNF-β mRNA (MG63 cells [3]; 12-72 hours): Not detected | maximum increase of interferon-β mRNA level (MG63 cells [3]; by 48 h): 2100% | increase of interferon-β mRNA level (MG63 cells [3]; within 12 h): 500%

Source: patent US6730665B1, “Treatment of bone cancer” (Mayo Foundation for Medical Education and Research, priority 1999, dated 2004)
